± gives the expanded uncertainty stated by the source.
Details: Liquid

vapor or sublimation pressure (159.01 K): 13.79 ± 0.3 kPa
vapor or sublimation pressure (182.33 K): 72.13 ± 1.2 kPa
Structure (SMILES): Cl [hydrogen chloride]
